Tested on: A498 complex spheroid viability
Assay: Anticancer human tumor A498 cell line growth inhibition;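 note: spheroids exposed to agents for seven days before readout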;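 for viability, T/C: 100% = DMSO vehicle-treated spheroids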
Settings: for IC50: curve of first compound; for viability, T/C: stronger effect = lower value; active = viability on the fitted dose curve at most 10% of control; inactive = the rest
Procedure, shortened: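 Complex spheroids of tumor cells with HUVEC and human MSCs, exposed to iadademstat combined with other agents. Each agent tested in half-log steps from near clinical Cmax (else 10 microM top), DMSO ≤0.25%.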

[1] = second compound 0.1 µM, first compound 0.00949 µM
[2] = second compound 0.1 µM, first compound 0.03 µM
[3] = second compound 0.1 µM, first compound 0.0949 µM
[4] = second compound 0.1 µM, first compound 0.3 µM
[5] = second compound 0.1 µM, first compound 0.949 µM
[6] = second compound 0.1 µM, first compound 3 µM
[7] = second compound 0.316 µM, first compound 0.00949 µM
[8] = second compound 0.316 µM, first compound 0.03 µM
[9] = second compound 0.316 µM, first compound 0.0949 µM
[10] = second compound 0.316 µM, first compound 0.3 µM
[11] = second compound 0.316 µM, first compound 0.949 µM
[12] = second compound 0.316 µM, first compound 3 µM
[13] = second compound 1 µM, first compound 0.00949 µM
[14] = second compound 1 µM, first compound 0.03 µM
[15] = second compound 1 µM, first compound 0.0949 µM
[16] = second compound 1 µM, first compound 0.3 µM
[17] = second compound 1 µM, first compound 0.949 µM
[18] = second compound 1 µM, first compound 3 µM
[19] = second compound 3.16 µM, first compound 0.00949 µM
[20] = second compound 3.16 µM, first compound 0.03 µM
[21] = second compound 3.16 µM, first compound 0.0949 µM
[22] = second compound 3.16 µM, first compound 0.3 µM
[23] = second compound 3.16 µM, first compound 0.949 µM
[24] = second compound 3.16 µM, first compound 3 µM
[25] = second compound 10 µM, first compound 0.00949 µM
[26] = second compound 10 µM, first compound 0.03 µM
[27] = second compound 10 µM, first compound 0.0949 µM
[28] = second compound 10 µM, first compound 0.3 µM
[29] = second compound 10 µM, first compound 0.949 µM
[30] = second compound 10 µM, first compound 3 µM

NS(=O)(=O)OCC1CC(n2ccc3c(NC4CCc5ccccc54)ncnc32)CC1O (stereo not given) + NC1CC1c1ccc(-c2cccc(O)c2)cc1
inactive: viability, T/C [1] 99% | viability, T/C [2] 70.4% | viability, T/C [3] 32.4% | viability, T/C [4] 23.4% | viability, T/C [5] 15.9% | viability, T/C [6] 12.4% | viability, T/C [7] 100% | viability, T/C [8] 78.5% | viability, T/C [9] 39.6% | viability, T/C [10] 21.4% | viability, T/C [11] 15.6% | viability, T/C [12] 12% | viability, T/C [13] 96.2% | viability, T/C [14] 83.2% | viability, T/C [15] 41.1% | viability, T/C [16] 25.9% | viability, T/C [17] 16.1% | viability, T/C [18] 12.8% | viability, T/C [19] 101% | viability, T/C [20] 73.7% | viability, T/C [21] 43.5% | viability, T/C [22] 27.7% | viability, T/C [23] 19% | viability, T/C [24] 14.9% | viability, T/C [25] 90.8% | viability, T/C [26] 53.2% | viability, T/C [27] 40.3% | viability, T/C [28] 29.9% | viability, T/C [29] 18.4% | viability, T/C [30] 15%
78.6 nM: IC50 (second compound 1 µM)
57.2 nM: IC50 (second compound 0.1 µM)
46.3 nM: IC50 (second compound 10 µM)
76.4 nM: IC50 (second compound 3.16 µM)
71 nM: IC50 (second compound 0.316 µM)

O=C(C=Cc1cccc(S(=O)(=O)Nc2ccccc2)c1)NO + NC1CC1c1ccc(-c2cccc(O)c2)cc1
364 nM: IC50 (second compound 3.16 µM)
398 nM: IC50 (second compound 0.316 µM)
352 nM: IC50 (second compound 0.1 µM)
325 nM: IC50 (second compound 1 µM)
inactive: viability, T/C [1] 105% | viability, T/C [2] 90.2% | viability, T/C [3] 78.6% | viability, T/C [4] 49% | viability, T/C [5] 32.4% | viability, T/C [7] 105% | viability, T/C [8] 93.2% | viability, T/C [9] 76.9% | viability, T/C [10] 53.3% | viability, T/C [11] 34.3% | viability, T/C [13] 98.4% | viability, T/C [14] 88.3% | viability, T/C [15] 76.8% | viability, T/C [16] 49.3% | viability, T/C [17] 28.4% | viability, T/C [19] 93.9% | viability, T/C [20] 84.4% | viability, T/C [21] 66.6% | viability, T/C [22] 52.2% | viability, T/C [23] 37.6% | viability, T/C [25] 93.2% | viability, T/C [26] 81.3% | viability, T/C [27] 66.7% | viability, T/C [28] 55.5% | viability, T/C [29] 30.7%
343 nM: IC50 (second compound 10 µM)
active: viability, T/C [6] 7.4% | viability, T/C [12] 7.34% | viability, T/C [18] 6.7% | viability, T/C [24] 5.52% | viability, T/C [30] 5.21%

CC(C)CC(NC(=O)CNC(=O)c1cc(Cl)ccc1Cl)B1OC(=O)CC(CC(=O)O)(C(=O)O)O1 (stereo not given) + NC1CC1c1ccc(-c2cccc(O)c2)cc1
4.44 nM: IC50 (second compound 1 µM)
active: viability, T/C (second compound 0.1 µM, first compound 0.0316 µM) 5.77% | viability, T/C (second compound 0.1 µM, first compound 0.1 µM) 2.14% | viability, T/C (second compound 0.316 µM, first compound 0.0316 µM) 5.27% | viability, T/C (second compound 0.316 µM, first compound 0.1 µM) 1.97% | viability, T/C (second compound 1 µM, first compound 0.0316 µM) 3.81% | viability, T/C (second compound 1 µM, first compound 0.1 µM) 1.83% | viability, T/C (second compound 3.16 µM, first compound 0.0316 µM) 3.71% | viability, T/C (second compound 3.16 µM, first compound 0.1 µM) 1.96% | viability, T/C (second compound 10 µM, first compound 0.0316 µM) 2.82% | viability, T/C (second compound 10 µM, first compound 0.1 µM) 1.07%
4.26 nM: IC50 (second compound 0.1 µM)
4.29 nM: IC50 (second compound 3.16 µM)
inactive: viability, T/C (second compound 0.1 µM, first compound 0.000316 µM) 93.7% | viability, T/C (second compound 0.1 µM, first compound 0.001 µM) 96.5% | viability, T/C (second compound 0.1 µM, first compound 0.00316 µM) 60% | viability, T/C (second compound 0.1 µM, first compound 0.01 µM) 18.1% | viability, T/C (second compound 0.316 µM, first compound 0.000316 µM) 106% | viability, T/C (second compound 0.316 µM, first compound 0.001 µM) 114% | viability, T/C (second compound 0.316 µM, first compound 0.00316 µM) 68.1% | viability, T/C (second compound 0.316 µM, first compound 0.01 µM) 17.3% | viability, T/C (second compound 1 µM, first compound 0.000316 µM) 96.6% | viability, T/C (second compound 1 µM, first compound 0.001 µM) 102% | viability, T/C (second compound 1 µM, first compound 0.00316 µM) 62.9% | viability, T/C (second compound 1 µM, first compound 0.01 µM) 16.8% | viability, T/C (second compound 3.16 µM, first compound 0.000316 µM) 91.8% | viability, T/C (second compound 3.16 µM, first compound 0.001 µM) 94.4% | viability, T/C (second compound 3.16 µM, first compound 0.00316 µM) 61% | viability, T/C (second compound 3.16 µM, first compound 0.01 µM) 16.9% | viability, T/C (second compound 10 µM, first compound 0.000316 µM) 98.4% | viability, T/C (second compound 10 µM, first compound 0.001 µM) 92.1% | viability, T/C (second compound 10 µM, first compound 0.00316 µM) 51.7% | viability, T/C (second compound 10 µM, first compound 0.01 µM) 15.6%
3.46 nM: IC50 (second compound 10 µM)
4.8 nM: IC50 (second compound 0.316 µM)

Nc1ccccc1NC(=O)c1ccc(CNC(=O)OCc2cccnc2)cc1 + NC1CC1c1ccc(-c2cccc(O)c2)cc1
362 nM: IC50 (second compound 3.16 µM)
333 nM: IC50 (second compound 0.316 µM)
active: viability, T/C [6] 1.7% | viability, T/C [12] 1.7% | viability, T/C [18] 1.74% | viability, T/C [24] 2.01% | viability, T/C [30] 1.69%
357 nM: IC50 (second compound 0.1 µM)
inactive: viability, T/C [1] 89.5% | viability, T/C [2] 88% | viability, T/C [3] 72.6% | viability, T/C [4] 59.2% | viability, T/C [5] 19.5% | viability, T/C [7] 93.1% | viability, T/C [8] 95.4% | viability, T/C [9] 84.1% | viability, T/C [10] 50.6% | viability, T/C [11] 21.1% | viability, T/C [13] 88.3% | viability, T/C [14] 89.3% | viability, T/C [15] 77.7% | viability, T/C [16] 46% | viability, T/C [17] 20.6% | viability, T/C [19] 81% | viability, T/C [20] 87.5% | viability, T/C [21] 78.2% | viability, T/C [22] 55.7% | viability, T/C [23] 19.2% | viability, T/C [25] 86.2% | viability, T/C [26] 78.6% | viability, T/C [27] 70.7% | viability, T/C [28] 48.1% | viability, T/C [29] 19.4%
284 nM: IC50 (second compound 1 µM)
266 nM: IC50 (second compound 10 µM)

From PubChem BioAssay AID1918947 (Molecular Pharmacology Branch, DTP, NCI, 2023)
